This is an account of results in patent publication US20120095024A1, “TOLUIDINE SULFONAMIDES AND THEIR USE” (Elara Pharmaceuticals GmbH, priority 2008, published 2012).

For orientation: EC50 means the concentration at which the effect is half-maximal. Low values mean a more potent agent, high ones a less potent agent.

This assay has as its system MCF7 cells. The experiment in a line: Cell proliferation assay (ATPlite), MCF-7. In kind it is cell-based, human. The following applies: inhibition of cell proliferation, 72 h. The method, then: MCF-7 human breast adenocarcinoma cells and HL-60 acute promyelocytic leukaemia cells were obtained from ATCC (LGC Promochem). HG-1 multiple myeloma cells were obtained from Dr. D. Hose (DKFZ Heidelberg). The CellSensor® HRE-bla HCT116 cell line (colorectal carcinoma) was obtained from Invitrogen.
Cells were grown under humidified 95% air, 5% CO2 at 37° C. in Dulbecco's modified Eagle's medium (DMEM: MCF-7) or RPMI 1640 medium (RPMI: HL-60, HG-1) supplemented with 10% fetal bovine serum (FBS), 100 U/ml penicillin and 100 μg/ml streptomycin, 2 mM L-glutamine, and 2 ng/ml IL-6 (for the HG-1 cell line only). The HCT116 cell line was grown under the same atmospheric conditions in McCoy's 5A medium supplemented with 10% FBS and penicillin/streptomycin as above, in addition to blasticidin as a selection marker at a final concentration of 5 μg/ml.
Cell proliferation experiments were carried out in 96-well tissue culture plates with seeding of 2000 cells/well (MCF-7) or 1000 cells/well (HL-60, HG-1) in 100 μl of the relevant medium. Cells were subsequently incubated under the conditions mentioned for 24 h prior to addition of compounds.
For the determination of compound EC50 values, 10 μl compounds at 11× concentrations in 5.5% DMSO were added to the wells at various concentrations yielding a final constant percentage of 0.5% DMSO at the desired 1× compound concentration. As a positive control, cells were treated with 5.5% DMSO. The cells were then incubated for a further 72 h prior to the measurement.
To determine the degree of inhibition of cell proliferation, cells were treated with ATPlite solution according to the manufacturer's instructions (PerkinElmer, ATPlite 1-step Luminescence ATP Detection Assay System) and luciferase readout measured on an Envision HTS multilabel plate reader (PerkinElmer) in luminescence mode according to established protocols. Raw data were imported into an ActivityBase database (IDBS, ID Business Solutions) and EC50 values calculated using the IDBS program ActivityBase XE. Table 2A and 2B show the IC50 values obtained in the above-outlined cell proliferation assay for exemplary compounds of the invention.

For the compound `Cc1ccc(S(=O)(=O)Nc2cc(-c3cccc(C#N)n3)ccc2C)cc1` [Example 52, N-[5-(6-Cyano-pyridin-2-yl)-2-methyl-phenyl]-4-methyl-benzenesulfonamide], where the note is “Homo sapiens”, the 50% effective concentration (EC50) fell in the range of 500 to 1000 nM.
The same measure, in the same setting: then `Cc1ccc(S(=O)(=O)Nc2cc(-c3cc(C)ccn3)ccc2C)cc1` [Example 31, 4-Methyl-N-[2-methyl-5-(4-methyl-pyridin-2-yl)-phenyl]-benzenesulfonamide], with 1000 to 10000 nM; and `Cc1ccc(S(=O)(=O)Nc2cc(-n3c(C)ccc3C)ccc2C)cc1` [Example 29, N-[5-(2,5-Dimethyl-pyrrol-1-yl)-2-methyl-phenyl]-4-methyl-benzenesulfonamide], with 1000 to 10000 nM; and `Cc1ccc(-c2ccc(C#N)s2)cc1NS(=O)(=O)c1ccc(F)cc1` [Example 91, N-[5-(5-Cyano-thiophen-2-yl)-2-methyl-phenyl]-4-fluoro-benzenesulfonamide], with 500 to 1000 nM.
Same read-out and setting: then `Cc1ccc(S(=O)(=O)Nc2cc(-c3sccc3C)ccc2C)cc1` [Example 24, 4-Methyl-N-[2-methyl-5-(3-methyl-thiophen-2-yl)-phenyl]-benzenesulfonamide], with under 500 nM; and `Cc1ccc(S(=O)(=O)Nc2cc(-c3ccc(F)c(C)n3)ccc2C)cc1` [Example 46, N-[5-(5-Fluoro-6-methyl-pyridin-2-yl)-2-methyl-phenyl]-4-methyl-benzenesulfonamide], with 500 to 1000 nM.
Still for that read-out and setting: then `COc1cccc(-c2ccc(C)c(NS(=O)(=O)c3ccc(C)cc3)c2)n1` [Example 9, N-[5-(6-Methoxy-pyridin-2-yl)-2-methyl-phenyl]-4-methyl-benzenesulfonamide], with 500 to 1000 nM.
Compound `Cc1ccc(S(=O)(=O)Nc2cc(-c3ccc(C(F)(F)F)cn3)ccc2C)cc1` [Example 45, 4-Methyl-N-[2-methyl-5-(5-trifluoromethyl-pyridin-2-yl)-phenyl]-benzenesulfonamide] showed a concentration for a half-maximal effect (EC50) (Homo sapiens) of 1000 to 10000 nM.
On the same count and under the same terms, then `CC(=O)c1ccc(-c2ccc(C)c(NS(=O)(=O)c3ccc(C)cc3)c2)nc1` [Example 54, N-[5-(5-Acetyl-pyridin-2-yl)-2-methyl-phenyl]-4-methyl-benzenesulfonamide], with 1000 to 10000 nM; and `COc1ccc(S(=O)(=O)Nc2cc(-c3ccc(SC)cc3)ccc2C)cc1` [Example 82, 4-Methoxy-N-(4-methyl-4′-methylsulfanyl-biphenyl-3-yl)-benzenesulfonamide], with 1000 to 10000 nM; and `Cc1ccc(-c2ccc(C)c(NS(=O)(=O)c3ccc(C)cc3)c2)cc1` [Example 10, N-(4,4′-Dimethyl-biphenyl-3-yl)-4-methyl-benzenesulfonamide], with 1000 to 10000 nM.
On the same count and under the same terms, with `CCOc1ccc(-c2ccc(C)c(NS(=O)(=O)c3ccc(C)cc3)c2)cn1` [Example 37, N-[5-(6-Ethoxy-pyridin-3-yl)-2-methyl-phenyl]-4-methyl-benzenesulfonamide] the figure was 1000 to 10000 nM; with `Cc1ccc(S(=O)(=O)Nc2cc(-n3cnnn3)ccc2C)cc1` [Example 2, 4-Methyl-N-(2-methyl-5-tetrazol-1-yl-phenyl)-benzenesulfonamide], 1000 to 10000 nM.
Still for that read-out and setting: with `COc1cc(-c2ccc(C)c(NS(=O)(=O)c3ccc(C)c(F)c3)c2)ccc1C#N` [Example 99, N-(4′-cyano-3′-methoxy-4-methylbiphenyl-3-yl)-3-fluoro-4-methylbenzenesulfonamide] the figure was under 500 nM; with `CC(=O)c1cccc(-c2ccc(C)c(NS(=O)(=O)c3ccc(C)cc3)c2)n1` [Example 42, N-[5-(6-Acetyl-pyridin-2-yl)-2-methyl-phenyl]-4-methyl-benzenesulfonamide], 500 to 1000 nM.
Regarding `COc1ccc(S(=O)(=O)Nc2cc(-c3ccc(C#N)s3)ccc2C)cc1OC` [Example 108, N-(5-(5-cyanothiophen-2-yl)-2-methylphenyl)-3.4-dimethoxybenzenesulfonamide], the EC50 was 500 to 1000 nM.
Still for that read-out and setting: then “N-[5-(5-Cyano-pyridin-3-yl)-2-methyl-phenyl]-4-methoxy-benzenesulfonamide [Example 74]”, with under 500 nM.
Consider `Cc1ccc(S(=O)(=O)Nc2cc(-c3ccc(F)cn3)ccc2C)cc1` [Example 53, N-[5-(5-Fluoro-pyridin-2-yl)-2-methyl-phenyl]-4-methyl-benzenesulfonamide], for which, where the note is “Homo sapiens”, the concentration for a half-maximal effect (EC50) was under 500 nM.
Same read-out and setting: with `Cc1ccc(S(=O)(=O)Nc2cc(-c3ccoc3C)ccc2C)cc1` [Example 25, 4-Methyl-N-[2-methyl-5-(2-methyl-furan-3-yl)-phenyl]-benzenesulfonamide] the figure was under 500 nM; with `Cc1ccc(S(=O)(=O)Nc2cc(-c3cscc3C#N)ccc2C)cc1` [Example 69, N-[5-(4-Cyano-thiophen-3-yl)-2-methyl-phenyl]-4-methyl-benzenesulfonamide], under 500 nM; with `Cc1ccc(S(=O)(=O)Nc2cc(-c3ncc(C#N)cn3)ccc2C)cc1` [Example 64, N-[5-(5-Cyano-pyrimidin-2-yl)-2-methyl-phenyl]-4-methyl-benzenesulfonamide], 500 to 1000 nM.
For the compound `Cc1ccc(S(=O)(=O)Nc2cc(C)cc(-c3csc(C)c3)c2)cc1` [Example 94, 4-Methyl-N-[3-methyl-5-(5-methyl-thiophen-3-yl)-phenyl]-benzenesulfonamide], the concentration giving a half-maximal response (EC50) (Homo sapiens) was under 500 nM.
Still for that read-out and setting: with `Cc1ccc(-c2ccc(C#N)s2)cc1NS(=O)(=O)c1ccc(C#N)cc1` [Example 116, 4-cyano-N-(5-(5-cyanothiophen-2-yl)-2-methylphenyl)benzenesulfonamide] the figure was 500 to 1000 nM.
For the compound `COc1ccc(S(=O)(=O)Nc2cc(-n3cccc3C#N)ccc2C)cc1` [Example 41, N-[5-(2-Cyano-pyrrol-1-yl)-2-methyl-phenyl]-4-methoxy-benzenesulfonamide], the EC50 (Homo sapiens) was in the range of 500 to 1000 nM.
The same measure, in the same setting: then `Cc1ccc(S(=O)(=O)Nc2cc(-c3ccc([N+](=O)[O-])cn3)ccc2C)cc1` [Example 55, 4-Methyl-N-[2-methyl-5-(5-nitro-pyridin-2-yl)-phenyl]-benzenesulfonamide], with under 500 nM; and `Cc1ccc(S(=O)(=O)Nc2cc(-c3nnn(C)n3)ccc2C)cc1` [Example 6, 4-Methyl-N-[2-methyl-5-(2-methyl-2H-tetrazol-5-yl)-phenyl]-benzenesulfonamide], with 1000 to 10000 nM.
In the case of `Cc1ccc(S(=O)(=O)Nc2cc(-c3occc3C#N)ccc2C)cc1` [Example 70, N-[5-(3-Cyo-furan-2-yl)-2-methyl-phenyl]-4-methyl-benzenesulfonamide], the EC50 is under 500 nM.
Under “Homo sapiens”, `COc1cc(S(=O)(=O)Nc2cc(-c3ccc(C#N)s3)ccc2C)ccc1F` [Example 113, N-(5-(5-cyanothiophen-2-yl)-2-methylphenyl)-4-fluoro-3-methoxybenzenesulfonamide] gave a half-maximal effective concentration (EC50) of 500 to 1000 nM.
Turning to `COc1ccc(S(=O)(=O)Nc2cc(-c3cc(C)sc3C)ccc2C)cc1` [Example 13, N-[5-(2,5-Dimethyl-thiophen-3-yl)-2-methyl-phenyl]-4-methoxy-benzenesulfonamide], the EC50 (Homo sapiens) was in the range of 1000 to 10000 nM.
Consider `COc1ccc(S(=O)(=O)Nc2cc(-n3cccc3)ccc2C)cc1` [Example 21, 4-Methoxy-N-(2-methyl-5-pyrrol-1-yl-phenyl)-benzenesulfonamide], for which the concentration giving a half-maximal response (EC50) (Homo sapiens) was under 500 nM.
As to `COc1cncc(-c2ccc(C)c(NS(=O)(=O)c3ccc(C)cc3)c2)c1` [Example 35, N-[5-(5-Methoxy-pyridin-3-yl)-2-methyl-phenyl]-4-methyl-benzenesulfonamide], for the setting “Homo sapiens”, the concentration giving a half-maximal response (EC50) is 1000 to 10000 nM.
